# In patent US20060128724A1, “Pyrazole-substituted aminoheteroaryl compounds as protein kinase inhibitors” (AGOURON PHARMACEUTICALS, INC., priority 2004, published 2006):
# Molecular target: T1, c-MET (HGFR) (Homo sapiens, UniProt P08581)
# T1 construct: purchased Upstate 14-526
# Assay: HGFR Continuous-Coupled Spectrophotometric Assay
# Assay type: biochemical
# Details: Met-2 substrate peptide, 50 nM HGFR, 37° C.; read-out: Met Ki
# In short: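 Tyrosine kinase activity of 50 nM HGFR on the activation-loop Met-2 peptide, followed as NADH consumption at 340 nm over 10 min at 37 °C in a pyruvate kinase/LDH coupled system, HEPES pH 7.5 buffer with MgCl2 and DTT.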
# T1 sequence (P08581 974-1390 limits assumed): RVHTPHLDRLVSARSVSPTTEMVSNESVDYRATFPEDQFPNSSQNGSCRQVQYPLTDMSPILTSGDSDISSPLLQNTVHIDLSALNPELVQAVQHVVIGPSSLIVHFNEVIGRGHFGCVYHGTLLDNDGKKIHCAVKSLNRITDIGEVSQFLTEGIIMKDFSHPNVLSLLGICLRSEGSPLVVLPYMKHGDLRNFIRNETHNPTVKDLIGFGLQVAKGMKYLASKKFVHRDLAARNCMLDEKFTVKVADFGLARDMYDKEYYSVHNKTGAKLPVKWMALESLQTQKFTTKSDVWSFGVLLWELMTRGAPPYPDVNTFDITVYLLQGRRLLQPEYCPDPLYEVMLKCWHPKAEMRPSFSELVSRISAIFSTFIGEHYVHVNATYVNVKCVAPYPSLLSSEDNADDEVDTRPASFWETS
row,Compound,Ki [nM]
1,"CCN(CC)CC(=O)N1CCC(n2cc(-c3cnc(N)c(OC(C)c4c(Cl)ccc(F)c4Cl)c3)cn2)CC1 (stereo not drawn) [Example 126, 1-[4-(4-{6-Ainino-5-[1-(2,6-dichloro-3-fluoro-phenyl)-ethoxy]-pyridin-3-yl}-pyrazol-1-yl)-piperidin-1-yl]-2-diethylamino-ethanone]",15
2,"CC(Oc1cccnc1N)c1cc(F)ccc1C#N (stereo not drawn) [Example 129, 2-[1-(2-Amino-pyridin-3-yloxy)-ethyl]-4-fluoro-benzonitrile]",6460
3,"CC(Oc1cc(-c2cnn(CC(C)(C)O)c2)cnc1N)c1c(Cl)ccc(F)c1Cl (stereo not drawn) [Example 130, 1-(4-{6-Amino-5-[1-(2,6-dichloro-3-fluoro-phenyl)-ethoxy]-pyridin-3-yl}-pyrazol-1-yl)-2-methyl-propan-2-ol]",45
4,"CC(Oc1cc(-c2cnn(CC3(C)COC3)c2)cnc1N)c1c(Cl)ccc(F)c1Cl (stereo not drawn) [Example 131, 3-[1-(2,6-Dichloro-3-fluoro-phenyl)-ethoxy]-5-[1-(3-methyl-oxetan-3-ylmethyl)-1H-pyrazol-4-yl]-pyridin-2-ylamine]",50
5,"CC(Oc1cc(-c2cnn(CC3CCOCC3)c2)cnc1N)c1c(Cl)ccc(F)c1Cl (stereo not drawn) [Example 132, 3-[1-(2,6-Dichloro-3-fluoro-phenyl)-ethoxy]-5-[1-(tetraydro-pyran-4-ylmethyl)-1H-pyrazol-4-yl]-pyridin-2-amine]",42
6,"CC(Oc1cc(-c2cnn(CCN3CCCC3=O)c2)cnc1N)c1c(Cl)ccc(F)c1Cl (stereo not drawn) [Example 133, 1-[2-(4-{6-Amino-5-[1-(2,6-dichloro-3-fluoro-phenyl)-ethoxy]-pyridin-3-yl}pyrazol-1-yl)-ethyl]-pyrrolidin-2-one]",105
7,"CC(Oc1cc(-c2cnn(C[C@H]3CCC(=O)N3)c2)cnc1N)c1c(Cl)ccc(F)c1Cl (stereo partly drawn) [Example 134, 5-(4-{6-Amino-5-[1-(2,6-dichloro-3-fluoro-phenyl)-ethoxy]-pyridin-3-yl}-pyrazol-1-ylmethyl)-pyrrolidin-2R-one]",24
8,"CC(C)Oc1ccc(Cl)c(C(C)Oc2cc(-c3cnn(C4CCNCC4)c3)cnc2N)c1Cl (stereo not drawn) [Example 140, 3-[1-(2,6-Dichloro-3-isopropoxy-phenyl)-ethoxy]-5-(1-piperidin-4-yl-1H-pyrazol-4-yl)-pyridin-2-ylamine]",37
9,"COCCOc1ccc(Cl)c(C(C)Oc2cc(-c3cnn(C4CCNCC4)c3)cnc2N)c1Cl (stereo not drawn) [Example 141, 3-{1-(2,6-Dichloro-3-(2-methoxy-ethoxy)-phenyl]-ethoxy}-5-(1-piperidin-4-yl-1H-pyrazol-4-yl)-pyridin-2-ylamine]",44
10,"Cc1ccc(Cl)c(C(C)Oc2cc(Br)cnc2N)c1Cl (stereo not drawn) [Example 142, 5-Bromo-3-[1-(2,6-dichloro-3-methyl-phenyl)ethoxy]-pyridin-2-ylamine]",2510
11,"CC(Oc1cc(Br)cnc1N)c1c(Cl)c(F)cc(F)c1Cl (stereo not drawn) [Example 145, 5-Bromo-3-[1-(2,6-dichloro-3,5-difluoro-phenyl)-ethoxy]-pyridin-2-ylamine]",30
12,"CC(Oc1cc(-c2cnn(C)c2)cnc1N)c1c(Cl)c(F)cc(F)c1Cl (stereo not drawn) [Example 149, 3-[1-(2,6-Dichloro-3,5-difluoro-phenyl)-ethoxy]-5-(1-methyl-1H-pyrazol-4-yl)-pyridin-2-ylamine]",72
13,"CC(Oc1cc(-c2cnn(C3CCNCC3)c2)cnc1N)c1c(Cl)c(F)cc(N(C)C)c1Cl (stereo not drawn) [Example 150, 3-[1-(2,6-Dichloro-3-dimethylamino-5-fluoro-phenyl)-ethoxy]-5-(1-piperidin-4-yl-1H-pyrazol-4-yl)-pyridin-2-ylamine]",163
14,"CC(Oc1cc(-c2cnn(C)c2)cnc1N)c1c(Cl)c(F)cc(OC2CCNCC2)c1Cl (stereo not drawn) [Example 151, 3-{1-[2,6-Dichloro-3-fluoro-5-(piperidin-4-yloxy)-phenyl]-ethoxy]-5-(1-methyl-1H-pyrazol-4-yl)-pyridin-2-ylamine]",25
15,"CC(Oc1cc(-c2cnn(C)c2)cnc1N)c1c(Cl)c(F)cc(O[C@@H]2CCNC2)c1Cl (stereo partly drawn) [Example 152, 3-{1-[2,6-Dichloro-3-fluoro-5-(pyrrolidin-3R-yloxy)-phenyl]-ethoxy}-5-(1-methyl-1H-pyrazol-4-yl)-pyridin-2-ylamine]",32
16,"CC(Oc1cc(Br)cnc1N)c1c(Cl)c(F)cc(OCCN(C)C)c1Cl (stereo not drawn) [Example 153, 5-Bromo-3-{1-[2,6-dichloro-3-(2-dimethylamino-ethoxy)-5-fluoro-phenyl]-ethoxy}-pyridin-2-ylamine]",805
17,"COc1cc(Cl)c(C(C)Oc2cc(-c3cnn(C4CCNCC4)c3)cnc2N)c(Cl)c1OC (stereo not drawn) [Example 154, 3-(1-(2,6-Dichloro-3-dimethoxy-phenyl)-ethoxy]-5-(1-piperidin-4-yl-1H-pyrazol-4-yl)-pyridin-2-ylamine]",105
18,"CC(Oc1cc(-c2cnn(C)c2)cnc1N)c1c(Cl)c(F)cc(OC2CNC2)c1Cl (stereo not drawn) [Example 155, 3-{1-[3-(Azetidin-3-yloxy)-2,6-dichloro-5-fluoro-phenyl]-ethoxy}-5-(1-methyl-1H-pyrazol-4-yl)-pyridin-2-ylamine]",29
19,"CC(Oc1cc(-c2cnn(C)c2)cnc1N)c1c(Cl)c(F)cc(OC2CCCNC2)c1Cl (stereo not drawn) [Example 156, 3-{1-(2,6-Dichloro-3-fluoro-5-(piperidin-3-yloxy)-phenyl]-ethoxy}-5-(1-methyl-1H-pyrazol-4-yl)-pyridin-2-ylamine]",36
20,"CC(Oc1cc(-c2cnn(C3CCNCC3)c2)cnc1N)c1c(Cl)c(F)cc(N2CCCC2=O)c1Cl (stereo not drawn) [Example 157, 1-(3-{1-[2-Amino-5-(1-piperidin-4-yl-1H-pyrazol-4-yl)-pyridin-3-yloxy]-ethyl]-2,4-dichloro-5-fluoro-phenyl)-pyrrolidin-2-one]",51

# Other lines, results leading:
row,Ki [nM],Compound
1,349,"CC(Oc1cc(-c2cnn(C3CCNCC3)c2)cnc1N)c1cc(F)ccc1Br (stereo not drawn) [Example 128, 3-[1-(2-Bromo-5-fluoro-phenyl)-ethoxy]-5-(1-piperidin-4-yl-1H-pyrazol-4-yl)-pyridin-2-ylamine]"
2,849,"CC(Oc1cc(-c2cnn(C3CCNCC3)c2)cnc1N)c1cc(F)ccc1C#N (stereo not drawn) [Example 135, 2-{1-[2-Amino-5-(1-piperidin-4-yl-1H-pyrazol-4-yl)-pyridin-3-yloxy]ethyl}-4-fluoro-benzonitrile]"
3,42,"CC(Oc1cc(-c2cnn(C3CCNCC3)c2)cnc1N)c1c(Cl)ccc(O)c1Cl (stereo not drawn) [Example 136, 3-{1-[2-Amino-5-(1-piperidin-4-yl-1H-pyrazol-4-yl)-pyridin-3-yloxy]-ethyl}-2,4-dichloro-phenol]"
4,10,"COc1ccc(Cl)c(C(C)Oc2cc(-c3cnn(C4CCNCC4)c3)cnc2N)c1Cl (stereo not drawn) [Example 138, 3-(1-(2,6-Dichloro-3-methoxy-phenyl)-ethoxy]-5-(1-piperidin-4-yl-1H-pyrazol-4-yl)-pyridin-2-ylamine]"
5,22,CCOc1ccc(Cl)c(C(C)Oc2cc(-c3cnn(C4CCNCC4)c3)cnc2N)c1Cl (stereo not drawn) [Example 139]
6,22,"Cc1ccc(Cl)c(C(C)Oc2cc(-c3cnn(C4CCNCC4)c3)cnc2N)c1Cl (stereo not drawn) [Example 143, 3-[1-(2,6-Dichloro-3-methyl-phenyl)-ethoxy]-5-(1-piperidin-4-yl-1H-pyrazol-4-yl)-pyridin-2-ylamine]"
7,587,"CC(Oc1cc(-c2cnn(C3CCNCC3)c2)cnc1N)c1cc(F)cc(F)c1Cl (stereo not drawn) [Example 144, 3-[1-(2-Chloro-3,5-difluoro-phenyl)-ethoxy]-5-(1-piperidin-4-yl-1H-pyrazol-4-yl)-pyridin-2-ylamine]"
8,30,"CC(Oc1cc(-c2cnn(C3CCNCC3)c2)cnc1N)c1c(Cl)c(F)cc(F)c1Cl (stereo not drawn) [Example 146, 3-[1-(2,6-Dichloro-3,5-difluoro-phenyl)-ethoxy]-5-(1-piperidin-4-yl-1H-pyrazol-4-yl)-pyridin-2-ylamine]"
9,30,"CC(Oc1cc(-c2cnn(C3CCNCC3)c2)cnc1N)c1c(Cl)c(O)cc(F)c1Cl (stereo not drawn) [Example 147, 3-{1-[2-Amino-5-(1-piperidin-4-yl-1H-pyrazol-4-yl)-pyridin-3-yloxy]ethyl}-2,4-dichloro-5-fluoro-phenol]"
10,23,"COc1cc(F)c(Cl)c(C(C)Oc2cc(-c3cnn(C4CCNCC4)c3)cnc2N)c1Cl (stereo not drawn) [Example 148, 3-[1-(2,6-Dichloro-3-fluoro-5-methoxy-phenyl)-ethoxy]-5-(1-peridin-4-yl-1H-pyrazol-4-yl)-pyridin-ylamine]"
